Results as given in patent publication EP0984975B1, “MULTICYCLIC ERYTHROMYCIN DERIVATIVES” (Abbott Laboratories, priority 1997, dated 1998).

Columns and labels:
Test in all cases: In vitro assay of antibacterial activity (agar dilution MIC)
Type in all cases: cell-based
[1] = test system: MYCOBACTERIUM SMEGMATIS ATCC 114; conditions: BHI agar, 35-37 °C for 20 to 24 hours, unit assumed
Experimental: (§1) Representative compounds of the present invention were assayed in vitro for antibacterial activity as follows: Twelve petri dishes containing successive aqueous dilutions of the test compound mixed with 10 mL of sterilized Brain Heart Infusion (BHI) agar (Difco 0418-01-5) were prepared. Each plate was inoculated with 1:100 (or 1:10 for slow-growing strains, such as Micrococcus and Streptococcus) dilutions of up to 32 different microorganisms, using a Steers replicator block. The inoculated plates were incubated at 35-37 °C for 20 to 24 hours. In addition, a control plate, using BHI agar containing no test compound, was prepared and incubated at the beginning and end of each test.
(§2) An additional plate containing a compound having known susceptibility patterns for the organisms being tested and belonging to the same antibiotic class as the test compound was also prepared and incubated as a further control, as well as to provide test-to-test comparability. Erythromycin A was used for this purpose.
(§3) After incubation, each plate was visually inspected. The minimum inhibitory concentration (MIC) was defined as the lowest concentration of drug yielding no growth, a slight haze, or sparsely isolated colonies on the inoculum spot as compared to the growth control.

ESCHERICHIA COLI DC-2 = conditions: BHI agar, 35-37 °C for 20 to 24 hours, unit assumed
Experimental: as §1, §2, §3

[2] = test system: STAPHYLOCOCCUS AUREUS NCTC10649M; conditions: BHI agar, 35-37 °C for 20 to 24 hours, unit assumed
Experimental: as §1, §2, §3

[3] = test system: STAPHYLOCOCCUS AUREUS ATCC 6538P; conditions: BHI agar, 35-37 °C for 20 to 24 hours, unit assumed
Experimental: as §1, §2, §3

[4] = test system: STREPTOCOCCUS PYOGENES 930; conditions: BHI agar, 35-37 °C for 20 to 24 hours, unit assumed
Experimental: as §1, §2, §3

EN[…] ATCC 8043 = conditions: BHI agar, 35-37 °C for 20 to 24 hours, unit assumed
Experimental: as §1, §2, §3

[5] = test system: STREPTOCOCCUS PYOGENES PIU 2548; conditions: BHI agar, 35-37 °C for 20 to 24 hours, unit assumed
Experimental: as §1, §2, §3

[6] = test system: STAPHYLOCOCCUS AUREUS A5177; conditions: BHI agar, 35-37 °C for 20 to 24 hours, unit assumed
Experimental: as §1, §2, §3

[7] = test system: STAPHYLOCOCCUS AUREUS CMX 553; conditions: BHI agar, 35-37 °C for 20 to 24 hours, unit assumed
Experimental: as §1, §2, §3

M[…] ATCC 4698 = conditions: BHI agar, 35-37 °C for 20 to 24 hours, unit assumed
Experimental: as §1, §2, §3

M[…] ATCC 9341 = conditions: BHI agar, 35-37 °C for 20 to 24 hours, unit assumed
Experimental: as §1, §2, §3

CANDIDA ALBICANS CCH 442 = conditions: BHI agar, 35-37 °C for 20 to 24 hours, unit assumed
Experimental: as §1, §2, §3

ESCHERICHIA COLI JUHL = conditions: unit assumed
Experimental: as §1, §2, §3

[8] = test system: STAPHYLOCOCCUS AUREUS A-5278; conditions: BHI agar, 35-37 °C for 20 to 24 hours, unit assumed
Experimental: as §1, §2, §3

STR[…] 508 = conditions: BHI agar, 35-37 °C for 20 to 24 hours, unit assumed
Experimental: as §1, §2, §3

[9] = test system: STAPHYLOCOCCUS EPIDERMIDIS 3519; conditions: unit assumed
Experimental: as §1, §2, §3

[10] = test system: STREPTOCOCCUS BOVIS A-5169; conditions: BHI agar, 35-37 °C for 20 to 24 hours, unit assumed
Experimental: as §1, §2, §3

[11] = test system: STREPTOCOCCUS PYOGENES EES61; conditions: BHI agar, 35-37 °C for 20 to 24 hours, unit assumed
Experimental: as §1, §2, §3

[12] = test system: STAPHYLOCOCCUS AUREUS 1775; conditions: BHI agar, 35-37 °C for 20 to 24 hours, unit assumed
Experimental: as §1, §2, §3

ESCHERICHIA COLI SS = conditions: unit assumed
Experimental: as §1, §2, §3

[13] = test system: STAPHYLOCOCCUS AUREUS CMX 642A; conditions: BHI agar, 35-37 °C for 20 to 24 hours, unit assumed
Experimental: as §1, §2, §3

N. ASTEROIDES ATCC 9970 = conditions: BHI agar, 35-37 °C for 20 to 24 hours, unit assumed
Experimental: as §1, §2, §3

[14] = MYCOBACTERIUM SMEGMATIS ATCC 114
[15] = STREPTOCOCCUS PYOGENES PIU 2548
[16] = ESCHERICHIA COLI JUHL, BHI agar, 35-37 °C for 20 to 24 hours
[17] = STREPTOCOCCUS AGALACTIAE CMX 508
[18] = STAPHYLOCOCCUS EPIDERMIDIS 3519, BHI agar, 35-37 °C for 20 to 24 hours
[19] = ESCHERICHIA COLI SS, BHI agar, 35-37 °C for 20 to 24 hours

Compound | Antibacterial Activity (MIC's) [1, 14] [µg/mL] | Antibacterial Activity (MIC's) (ESCHERICHIA COLI DC-2) [µg/mL] | Antibacterial Activity (MIC's) [2] [µg/mL] | Antibacterial Activity (MIC's) [3] [µg/mL] | Antibacterial Activity (MIC's) ([4]; STREPTOCOCCUS PYOGENES 930) [µg/mL] | Antibacterial Activity (MIC's) [5, 15] [µg/mL] | Antibacterial Activity (MIC's) [6] [µg/mL] | Antibacterial Activity (MIC's) [7] [µg/mL] | Antibacterial Activity (MIC's) (M[…] ATCC 4698; MICROCOCCUS LUTEUS ATCC 4698) [µg/mL] | Antibacterial Activity (MIC's) (M[…] ATCC 9341; MICROCOCCUS LUTEUS ATCC 9341) [µg/mL] | Antibacterial Activity (MIC's) (CANDIDA ALBICANS CCH 442) [µg/mL] | Antibacterial Activity (MIC's) (ESCHERICHIA COLI JUHL; [16]) [µg/mL] | Antibacterial Activity (MIC's) [8] [µg/mL] | Antibacterial Activity (MIC's) (STR[…] 508; [17]) [µg/mL] | Antibacterial Activity (MIC's) ([10]; STREPTOCOCCUS BOVIS A-5169) [µg/mL] | Antibacterial Activity (MIC's) ([11]; STREPTOCOCCUS PYOGENES EES61) [µg/mL] | Antibacterial Activity (MIC's) [12] [µg/mL] | Antibacterial Activity (MIC's) (ESCHERICHIA COLI SS; [19]) [µg/mL] | Antibacterial Activity (MIC's) [13] [µg/mL] | Antibacterial Activity (MIC's) (N. ASTEROIDES ATCC 9970) [µg/mL] | further results
CC[C@H]1OC(=O)[C@H](C)C(=O)[C@H](C)[C@@H](O[C@@H]2O[C@H](C)C[C@H](N(C)C)[C@H]2O)[C@](C)(OC)C[C@@H](C)C2Nc3ccccc3N3C(=O)O[C@@]1(C)[C@H]3[C@H]2C (single isomer, unassigned) [Ex 3, Compound of Formula (I): R^1 is methoxy; R^2 is H, R^3 is H, the double bond is absent, A, B, D and E are H, and Y and Z taken together with the atom to which they are attached form an oxo group] | 50 | > 100 | 50 | 25 | > 100 | 25 | 25 | 50 | 25 | 3.1 | > 100 | > 100 | > 100 | 3.1 | 1.56 | 3.1 | > 100 | 100 | 50 | 6.2 | Antibacterial Activity (MIC's) (EN[…] ATCC 8043; ENTEROCOCCUS FAECIUM ATCC 8043): 12.5 µg/mL; Antibacterial Activity (MIC's) [9, 18]: 50 µg/mL
CC[C@H]1OC(=O)[C@H](C)[C@@H](O[C@H]2C[C@@](C)(OC)[C@@H](O)[C@H](C)O2)[C@H](C)[C@@H](O[C@@H]2O[C@H](C)C[C@H](N(C)C)[C@H]2O)[C@](C)(O)C[C@@H](C)C(=O)[C@H](C)[C@@H](O)[C@]1(C)O [Ery A, Erythromycin A, reference compound] |  | 100 | 0.39 | 0.2 |  |  | 3.1 | 0.39 |  |  | > 100 |  | > 100 |  |  |  | > 100 |  | 0.39 | 0.1 | Antibacterial Activity (MIC's) ([1]; MYC[…] ATCC 114): 1.56 µg/mL; Antibacterial Activity (MIC's) ([4]; STR[…] 930): > 100 µg/mL; Antibacterial Activity (MIC's) (EN[…] ATCC 8043; EN[…] ATCC 8043): 0.1 µg/mL; Antibacterial Activity (MIC's) ([5]; STR[…] PIU 2548): 3.1 µg/mL; Antibacterial Activity (MIC's) (M[…] ATCC 4698; M[…] ATCC 4698): 0.39 µg/mL; Antibacterial Activity (MIC's) (M[…] ATCC 9341; M[…] ATCC 9341): 0.02 µg/mL; Antibacterial Activity (MIC's) (ESCHERICHIA COLI JUHL): 50 µg/mL; Antibacterial Activity (MIC's) (STR[…] 508; STR[…] 508): 0.02 µg/mL; Antibacterial Activity (MIC's) [9]: 0.2 µg/mL; Antibacterial Activity (MIC's) ([10]; STR[…] A-5169): 0.01 µg/mL; Antibacterial Activity (MIC's) ([11]; STR[…] EES61): 0.02 µg/mL; Antibacterial Activity (MIC's) (ESCHERICHIA COLI SS): 0.39 µg/mL
CC[C@H]1OC(=O)[C@H](C)C(=O)[C@H](C)[C@@H](O[C@@H]2O[C@H](C)C[C@H](N(C)C)[C@H]2O)[C@](C)(OC)C[C@@H](C)C2=Nc3cc(C)ccc3N3C(=O)O[C@@]1(C)[C@H]3[C@H]2C [Ex 4, Compound of Formula (I): R^1 is methoxy; R^2 is H, R^3 is absent, the double bond is present, A, B, and E are H, D is methyl, and Y and Z taken together with the atom to which they are attached form an oxo group] | 100 | > 100 | 0.78 | 0.78 | > 100 | 0.2 | 0.78 |  | 0.2 | 0.1 | > 100 | > 100 | > 100 | 0.01 | 0.01 | 0.01 |  | 0.2 | 0.78 | 0.1 | 
CC[C@H]1OC(=O)[C@H](C)C(=O)[C@H](C)[C@@H](O[C@@H]2O[C@H](C)C[C@H](N(C)C)[C@H]2O)[C@](C)(OC)C[C@@H](C)C2=Nc3cc(C#N)ccc3N3C(=O)O[C@@]1(C)[C@H]3[C@H]2C [Ex 6, Compound of Formula (I): R^1 is methoxy; R^2 is H, R^3 is absent, the double bond is present, A, B, and E are H, D is cyano and Y and Z taken together with the atom to which they are attached form an oxo group] | 0.1 | > 100 | 0.39 | 0.39 | > 100 | 0.39 |  | 0.39 | 0.39 | 0.05 | > 100 | > 100 | > 100 | 0.05 | 0.01 | 0.01 | > 100 | 3.1 | 0.39 | 0.39 | Antibacterial Activity (MIC's) (EN[…] ATCC 8043; ENTEROCOCCUS FAECIUM ATCC 8043): 0.05 µg/mL; Antibacterial Activity (MIC's) [9, 18]: 0.2 µg/mL
